According to patent publication US8389739B1, “Modulators of retinoid-related orphan receptor gamma” (Orphagen Pharmaceuticals, priority 2006, dated 2013):
pEC50: −log10 of the molar value. Entries after “also recorded” stand apart in the source; their conditions may differ.

Legend:
EAE [1] = conditions: mouse, in vivo; cited from earlier work
liver triglyceridemia = conditions: mice lacking the LXRα and LXRβ receptors; cited from earlier work
liver triglycerides = assay: Liver triglycerides after oral dosing in C57BL/6 mice; assay type: in vivo
Procedure: […] A small piece of the liver (˜200 mg) was weighed and extracted to determine triglyceride content. Glycerol was liberated from liver triglycerides by hydrolysis in base. The liver fragment was incubated overnight at 55° C. in 0.35 mls of ethanolic KOH (2 parts EtOH: 1 part 30% KOH) in a closed tube. A solution of 50% ethanol in water was added to bring the volume of each tube to 1.0 ml. The solution was cleared of debris by centrifugation, and the resulting supernatant increased to 1.2 ml with further addition of 50% ethanol. Aqueous 1 M MgCl2 (215 μl) was added to 200 μl of the supernatant, and the mixture was cleared by centrifugation again after standing 10 min on ice. Glycerol levels were measured with the Sigma Free Glycerol Reagent (Sigma-Aldrich, St. Louis, Mo.) according to the manufacturer's instructions. The triglyceride concentration (in milligrams per gram of liver wet weight) was determined by assuming average molecular weight of 1000 daltons for each molecule of triglyceride.

thymocytes = assay: Thymus weight and thymocyte subpopulations after oral dosing in C57BL/6 mice; assay type: in vivo; conditions: mouse, in vivo, 100 mg/kg
Procedure: In addition, the total number and the fraction of the major thymocyte subpopulations including CD4^+CD8^+ (DP), CD4^+CD8^- (SP4^+) and CD4^-CD8^+ (SP8^+) were measured by cell surface staining followed by FACS analysis. […] The volume of cells was adjusted to 8 mls. Debris from the thymus was allowed to settle, and a 200 μl aliquot of cells was incubated with fluorescent antibodies to CD4 and CD8 for 15 minutes at room temperature. […] Before analytical flow cytometry was carried out (FACS Calibur, Becton Dickinson), Caltag counting beads (from Invitrogen) were added to allow absolute quantitation of cell number. Thymus subpopulations were determined after gating for live cells. […] Dexamethasone reproducibly induces rapid apoptosis of DP thymocytes and reduction of thymic mass ([…], Drupt et al. 2000; Zubkova, Mostowski et al. 2005).

EAE [2] = assay: EAE model, C57BL/6 mice immunized with MOG35-55; assay type: in vivo; conditions: for median day of onset of symptoms (clinical score 1 or greater): oral gavage twice a day, corn oil vehicle day 18
EAE [3] = assay: EAE model, SJL/J mice immunized with PLP139-151, osmotic pump; assay type: in vivo
[4] = system: IL-17 release from CD4+ naïve murine T cells; assay: IL-17 release into culture medium during TH-17 differentiation (ELISA); assay type: cell-based, mouse; conditions: 3 μM, in the presence or absence of 3 μM OR-12872, day 4 (FIG. 10)
Procedure: FIG. 10. IL-17 release into culture medium was measured four days after induction of TH-17 differentiation in CD4^+ naïve murine T cells, following the methods of FIG. 7. Each antagonist (OR-885, OR-1050, OR-13571, and OR-2161) was incubated in the cultures at 3 μM, in the presence or absence of OR-12872, also at 3 μM. On day 4, culture supernatants were saved and IL-17 measured by ELISA.
Purified CD4^+CD62L^+ T cells were plated in 24-well plates with 2−4×10^5 cells in 700 ul volume of RPMI 1640 media containing 10% heat-inactivated FCS, 100 IU penicillin, 100 μg/ml streptomycin, 1× non-essential amino acids, 1 mM pyruvate, 2 mM glutamine, and 50 μM […] (Veldhoen, Hocking et al. 2006). T cells were stimulated with exogenous cytokines and anti-CD3/anti-CD28 conjugated Dynabeads (Dynal Biotech, Oslo) at a 1:1 ratio of beads to cells. Exogenous cytokines used were: 4 ng/ml TGF-β, 20 ng/ml of IL-6, or 10 ng/ml IL-12. RORγ agonist and antagonist ligands, dissolved in DMSO, were added directly to cell cultures, to a final concentration of 0.01%. Cytokines and RORγ ligands were added immediately after cell plating.
ELISA kits for mouse IL-17 and human IL-17 were from eBioscience (San Diego, Calif.). ELISA assays were performed following the manufacturer's protocol. Certain samples were diluted 20-fold to avoid maximization of enzymatic signals. […]

[5] = system: IL-17 release in lymph node cultures; assay: Lymph node cell cultures from MOG35-55 immunized C57BL/6 mice, IL-17 ELISA; assay type: cell-based; conditions: Mus musculus, 72 h; MOG and IL-23, 3 days, dose-response (FIG. 13F); read-out: EC50 for inhibition of IL-17 production
Procedure: FIGS. 13A-F. IL-17 levels in lymph node cells from mice immunized with myelin-derived peptides respond to cognate peptide antigens, IL-23 and RORγ ligands. (FIG. 13A) SJL/J mice were immunized by complete Freund's adjuvant (CFA) only or by Proteolipid Protein residues 139-151 (PLP139-151) emulsified in CFA. Lymph nodes were cultured for 3 days in with or without 40 μg/ml PLP in the presence or absence of OR-885. Culture media were analyzed by ELISA for IL-17. (FIGS. 13B-C) Lymph node cells from PLP-immunized SJL/J mice were cultured as before with the addition of 10 ng/ml IL-23 and 3 μM compounds. At the end of 1 day or 3 days in culture, Th-17 (CD4^+CD8^−IL17^+) cell frequency was measured by FACS (FIG. 13B) and compared to IL-17 levels in culture media (FIG. 13C). (FIGS. 13D-F) Lymph node cells from MOG35-55 immunized C57BL/6 mice were cultured for 3 days with 30 μg/ml MOG and/or 10 ng/ml IL-23. RORγ ligands were not added (FIG. 13D), or added at the beginning of the culture at a single concentration (FIG. 13E, 1 μM) or in multiple doses (FIG. 13F). […]
Overall, cultured lymph node cells that are stimulated with IL-23 and peptide antigens provide a model system to examine IL-17 production ex vivo (FIG. 13D). We analyzed a variety of RORγ ligands for their ability to regulate IL-17 (FIG. 13E). […] This potency is consistent with that measured in the CHO cell transcription assay.

## O=S(=O)(c1ccccc1)N(CC(F)(F)F)c1ccc(C(O)(C(F)(F)F)C(F)(F)F)cc1 [Compound T0901317, N-(2,2,2-Trifluoro-ethyl)-N-[4-(2,2,2-trifluoro-1-hydroxy-1-trifluoromethyl-ethyl)-phenyl]-benzenesulfonamide, reference compound]
EAE [1]
  development of murine EAE: inhibit the development of murine EAE
Liver triglyceridemia
  liver triglyceridemia: no effect on liver triglyceridemia

## CCN(c1ccc(C(O)(C(F)(F)F)C(F)(F)F)cc1)S(=O)(=O)c1ccc([N+](=O)[O-])cc1 [OR-1050, N-Ethyl-4-nitro-N-[4-(2,2,2-trifluoro-1-hydroxy-1-trifluoromethyl-ethyl)-phenyl]-benzenesulfonamide]
Liver triglycerides; OR-1050 100 mg/kg (50 mg/kg twice per day by gavage, corn oil) for 7 days, vehicle 34.7 ± 5.7
  Liver triglycerides: 119.5 ± 18.8 mg/g
Liver triglycerides; daily exposure to 100 mg/kg OR-1050, six day study
  liver triglycerides, in words: markedly elevated
thymocytes
  Frequency of DP (% of total cells): 56.7 ± 3.1%
  Total cells per spleen (×10^−6) DP: 61.5 ×10^−6
  Total cells per spleen (×10^−6) SP4: 8.1 ×10^−6
  Total cells per spleen (×10^−6) SP8: 2.5 ×10^−6
EAE [2]; 30 mg/kg total daily dose
  median day of onset of symptoms (clinical score 1 or greater): 16 days
EAE [2]; 100 mg/kg OR-1050 per day versus vehicle
  onset of EAE, in words: slows the onset of EAE; also recorded: significantly (p<0.05) delayed
EAE [2]; 100 mg/kg total daily dose, p<0.05
  median day of onset of symptoms (clinical score 1 or greater): 26 days
EAE [2]; high dose (50 mg/kg, 2× per day), FIG. 11A, 11B
  progress of disease and weight loss, in words: inhibits progress of the disease and weight loss
EAE [2]; high dose, FIG. 11C, p<0.07, Mann-Whitney
  inflammatory infiltration in the spinal cord: reduced
EAE [3]; FIG. 11D
  paralytic severity, in words: reduced paralytic severity
EAE [3]; FIG. 11E
  day of onset, in words: significantly delayed
EAE [3]; estimated 30 mg/kg daily, vehicle 14.5±1.6, p<0.01
  area under the severity curve (mean±sem): 5.3±2.7

## COC(C)CCC(C)C1CCC2C3CC(O)C4CC(O)CCC4(C)C3CCC12C (stereo not drawn) [OR-12872, 17-(4-Methoxy-1-methyl-pentyl)-10,13-dimethyl-hexadecahydro-cyclopenta[a]phenanthrene-3,6-diol]
[4]
  IL-17 release during TH-17 differentiation: reverses the effect of each of the antagonists

## C[C@@H]1CC[C@@]2(OC1)O[C@H]1C[C@H]3[C@@H]4CC[C@H]5C[C@@H](O)CC[C@]5(C)[C@H]4C[C@@H](O)[C@]3(C)[C@H]1[C@@H]2C [OR-885, 5α,20α, 22α, 25D-SPIROSTAN-3β, 12β-DIOL]
[5]
  pEC50: ~6.70
